Measured values as given in patent US20100184809A1, “Heterocyclic FXR Binding Compounds” (PHENEX PHARMACEUTICALS AG, priority 2006, published 2010).
Converted amounts (≈) assume the structure as drawn.

How the values were obtained:
[1] = Pharmacokinetic parameters in C57BL/6 mice (plasma concentration after peroral gavage); type: in vivo; conditions: mouse, oral, perorally by gavage 10 mg/kg, male C57BL/6 mice, read-out: mean plasma conc.
Description: (§1) Information on the rate and extent of absorption of the test compounds were generated using two distinct animal models, C57/BI/6J and C57/BLKS/J(mLepr^db/db) mice. Compounds were applied perorally by gavage at 10 mg/kg each to male 8 weeks old C57BL/6 mice and plasma concentrations of the test items were determined by LC-MS/MS (Table 11). Alternatively, compounds were applied perorally by gavage at 25 mg/kg each to 16 weeks old male C57/BLKS/J(mLepr^db/db) mice and plasma concentrations of the test items were determined 120 min after gavage by LC-MS/MS (Table 12).
(§2) A solution of 20 mg/ml of each test item was produced by diluting them in the vehicle, 30% HPBCD (hydroxypropyl-beta-cyclodextrin) in 20 mM phosphate buffer pH7.0 (v/w). These solutions were stirred overnight at room temperature and heated to 60° C. for 10 minutes, resulting in a full solubilization. The application was performed by administrating the solution perorally to the mice, with an application volume of 10 ml/kg. For each time point five mice were used. Blood samples were obtained by sacrificing animals for each time point followed by cardiac puncture. Blood samples were treated with Li-heparin during collection procedure and stored on ice until centrifugation at 645 g (5 min, 4° C.). Plasma was harvested and kept at −20° C. until being assayed. To 50 μl of mouse plasma sample 6 μl acetonitrile containing an internal standard was added. Samples were vigorously shaken and centrifuged for 10 minutes at 6000 g and 20° C. An aliquot of the particle-free supernatant was transferred to 200 μl sampler vials and subsequently subjected to LC MS/MS for quantification.

[2] = Pharmacokinetic parameters in C57/BLKS/J(mLepr^db/db) mice (plasma concentration after peroral gavage); type: in vivo; conditions: mouse, oral, perorally by gavage 25 mg/kg, male C57/BLKS/J(mLepr^db/db) mice, read-out: mean plasma conc.
Description: as §1
as §2, with “Blood samples were treated with Li-heparin during collection procedure and stored on ice until centrifugation at 645 g (5 min, 4° C.). Plasma was harvested and kept at −20° C. until being assayed. To 50 μl of mouse plasma sample 6 μl acetonitrile containing an internal standard was added. Samples were vigorously shaken and centrifuged for 10 minutes at 6000 g and 20° C.” left out

[3] = Aqueous solubility assay, Protocol B, shake-flask method; type: physicochemical; conditions: aqueous buffer, 10 mM PBS buffer pH 7.4, 1% MeOH, room temperature, read-out: Aqueous solubility pH 7.4 (μM) (±standard deviation), shake-flask method
Description: Protocol B, shake-flask method:
Sample preparation: Sample and standard solution preparation is performed by mixing equal volumes of acetonitrile containing the internal standard (1 μM final concentration) with sample and calibration standard solutions (100 μl). After vigorously shaking (10 seconds) the samples are centrifuged (6000 g) for 5 minutes at 20° C. Aliquots of the particle-free supernatants are transferred to 200 μl sample vials and subsequently subjected to LC-MS/MS. Assay procedure: Test concentration was 100 μM in 10 mM PBS buffer pH 7.4 with a final MeOH concentration of 1%. The volume of the incubation solution was 500 μl. Depending on each compound's solubility in MeOH, the stock concentration and the incubation concentration was adapted. The test solutions in quadruplicates were shaken at 300 rpm over a 20 hours period at room temperature, followed by centrifugation at 20000 g for 30 minutes to separate the solid phase. 100 μl of particle free sample are added to 100 μl acetonitrile containing the internal standard. The aqueous solubility of the compounds was determined by measuring the concentration of the PBS buffer supernatant by HPLC-MS/MS.

PAMPA permeability assay = type: in vitro ADME; conditions: % of compound found in the receiver compartment after 16 hours; PBS pH 7.4, 5% DMSO, 23° C.
Description: Artificial membrane permeability was determined as follows: Tested compounds were dissolved to 10 mM in 100% DMSO. Permeability of compounds was measured in PBS (pH 7.4), 5% DMSO at 23° C. Safire (Tecan) plate reader was used for measurement the UV/Vis absorption. Protocol: Dilute stocks of tested compounds and controls with PBS to 1.67 mM and mix well by pipeitting, add 280 μl of PBS, 5% DMSO to acceptor plate, add 5 μl of 2% L-α-Phosphatidylcholine suspension in dodecane to the membrane of donor plate, Immediately add 98 μl of PBS to donor plate and make the sandwich with acceptor plate. Add 42 μl of tested compounds and controls dilutions to […], cover the plate, place into camera and incubate for 16 hours. Make the equilibrium plate, add 225 μl of PBS, 3,7% DMSO and 25 μl of tested compounds and controls dilutions to UV plate. After 16 hours pull the donor plate out and transfer 250 μl from acceptor plate to UV plate. Scan UV plate on Safire (Tecan) plate reader from […]. Permeability is reported in % of compound found in the receiver compartment after the incubation period.

[4] = Rat microsomal stability assay; type: in vitro ADME; conditions: liver microsomes, 37° C., NADPH, 45 minute, read-out: Rat liver microsome clearance
Description: Compound stability towards rat liver microsomes was determined as follows: The microsomes are incubated with the test compound at 37° C. in the presence of the co-factor, NADPH, which initiates the reaction. The reaction is terminated by the addition of methanol. Following centrifugation, the supernatant is analysed on the LC-MS/MS. The disappearance of test compound is monitored over a 45 minute time period. The In peak area ratio (compound peak area/internal standard peak area) is plotted against time and the gradient of the line determined. Finally, Intrinsic clearance CLint is computed by the following equations: elimination rate konstant (k)=−gradient; t1/2 (min)=0.693/k; V (μl/mg)=volume of incubation (μl)/protein in incubation (mg); CLint (μl/min/mg protein)=V*0.693/t1/2.

[5] = Plasma protein binding assay (equilibrium dialysis); type: in vitro ADME; conditions: 37° C., extrapolated fraction unbound
Description: Equilibrium dialysis is used to determine the extent of binding of a compound to plasma proteins. A semi-permeable membrane separates a protein-containing compartment from a protein-free compartment. The system is allowed to equilibrate at 37° C. The test compound present in each compartment is quantified by LC-MS/MS. The extent of binding is reported as a fraction unbound (fu) value which is calculated as fu=1−(PC−PF)/PC. PC=Test compound concentration in protein-containing compartment. PF=Test compound concentration in protein-free compartment. In addition to using whole plasma, the plasma protein binding assay can be performed using two other ratios of plasma (10% or 50% plasma in buffer v/v). The following equations are used to convert from a fraction unbound at 10% or 50% to a fraction unbound at 100%: […]

concentration at 15 min [1] | concentration at 45 min [1] | concentration at 120 min [2] | solubility at 20 h [3] | PAMPA Permeability (PAMPA permeability assay) | microsomal CLint [4] | fraction unbound [5] | SMILES
1780 ng/mL | 2230 ng/mL | 287 ng/mL |  |  |  |  | CC(C)c1onc(-c2c(Cl)cccc2Cl)c1COc1ccc(N(C)Cc2ccc(C(=O)O)cc2)c(C(F)(F)F)n1 [Example 28, 4(((6-((3-(2,6-Dichlorophenyl)-5-isopropylisoxazol-4-yl)methoxy)-2-(trifluoromethyl)pyridin-3-yl)(methyl)amino)methyl)benzoic acid]
1600 ng/mL | 1650 ng/mL | 164 ng/mL | 17.7 µM (≈ 9.61 µg/mL) | 7% | 310 µL/min/mg |  | CC(C)c1onc(-c2c(Cl)cccc2Cl)c1COc1ccc(/C=C/c2cccc(C(=O)O)c2)c(Cl)c1 [Compound B, reference compound]
 |  |  |  | 50% |  | 0.0003 | Cc1nc(OCc2c(-c3c(Cl)cccc3Cl)noc2C(C)C)ccc1N(C)S(=O)(=O)c1ccc(C(=O)O)cc1 [Example 4, 4-(N-(6-((3-(2,6-dichlorophenyl)-5-isopropylisoxazol-4-yl)methoxy)-2-methylpyridin-3-yl)—N-methylsulfamoyl)benzoic acid]
 |  |  |  |  | 45 µL/min/mg | 0.005 | CC(C)c1onc(-c2c(Cl)cccc2Cl)c1COc1ccc(N(C)C(=O)c2ccc(C(=O)O)cc2)c(C(F)(F)F)n1 [Example 7, N-{6-[3-(2,6-dichloro-phenyl)-5-isopropyl-isoxazol-4-ylmethoxy]-2-trifluoromethyl-pyridin-3-yl}-N-methyl-terephthalamic acid]
